Data on two compounds can be found in patent US20240041039A1, “COMPOSITIONS AND METHODS FOR CONTROLLING PLANT PATHOGENS INCLUDING NEMATODES” (Kannar Earth Science, Ltd., priority 2022, published 2024).

For this assay, the system named is root knot Meloidogyne sp. nematodes. The assay is described as follows: Two-minute contact of live root-knot nematodes with water-based solutions in watch glass. The assay is classed as in vivo. To be noted: one drop of water-based solution, fatality recorded within 45 seconds. As for the experimental part:
Live root knot nematodes were collected from soil and kept in shallow water in small glass beakers at room temperature. The individual components and combined formulation were prepared according to the following procedures. Aqueous solutions of individual components were prepared at the concentrations as follows: 400 ppm baicalin (95% purity; Shaanxi Darwin Biotech Co, China), 500 ppm water soluble chitosan (85% purity; Shaanxi Rainwood Biotech Co Ltd, China) and 200 ppm L-glutathione (99% purity; Hunan Insen Biotech Co Ltd, China). Since use of liquid polymer is quite common in seed treatment for better and smoother coating or coverage, each of the individual components and combinations of the components was also prepared as a solution in a cellulose-based carrier (Slurry Buddy 110 from […] Science, Ltd.). Baicalin was dissolved in 1.0 ml of DMSO separately prior to addition to the carrier. Chitosan and glutathione were dissolved in 7.8 ml water prior to addition to the 90.0 ml carrier. In each case, the pH of the solution was adjusted to 5.7. […] This liquid flowable formulation can be used as a ready-to-use (RTU) formulation for seed application. […] One drop of the water-based solutions described above was added to the watch glass with the swimming nematode and the reaction of the nematode was recorded for a period of two-minutes. […]

Turning to `N[C@@H](CCC(=O)N[C@@H](CS)C(=O)NCC(=O)O)C(=O)O` [Glutathione, L-glutathione], the “Nematode Reaction” value is recorded as “Repelling”.

Regarding `O=C(O)[C@H]1O[C@@H](Oc2cc3oc(-c4ccccc4)cc(=O)c3c(O)c2O)[C@H](O)[C@@H](O)[C@@H]1O` [Baicalin, baicalin], the “Nematode Reaction” value is recorded as “Repelling”.
